Here are results for 1 sequence from publication PMC9101684, “Hempseed (Cannabis sativa) Peptide H3 ([sequence]) Exerts Cholesterol-Lowering Effects in Human Hepatic Cell Line” (Nutrients, 2022).

Where no end group is shown, it is not given here.

Data set [1] has as its target T1, HMGCoAR (catalytic domain) (Homo sapiens, UniProt P04035).
T1 construct: HMGCoAR (catalytic domain) (2 µL); purchased Sigma-Aldrich
T1 sequence (P04035 426-888 limits assumed): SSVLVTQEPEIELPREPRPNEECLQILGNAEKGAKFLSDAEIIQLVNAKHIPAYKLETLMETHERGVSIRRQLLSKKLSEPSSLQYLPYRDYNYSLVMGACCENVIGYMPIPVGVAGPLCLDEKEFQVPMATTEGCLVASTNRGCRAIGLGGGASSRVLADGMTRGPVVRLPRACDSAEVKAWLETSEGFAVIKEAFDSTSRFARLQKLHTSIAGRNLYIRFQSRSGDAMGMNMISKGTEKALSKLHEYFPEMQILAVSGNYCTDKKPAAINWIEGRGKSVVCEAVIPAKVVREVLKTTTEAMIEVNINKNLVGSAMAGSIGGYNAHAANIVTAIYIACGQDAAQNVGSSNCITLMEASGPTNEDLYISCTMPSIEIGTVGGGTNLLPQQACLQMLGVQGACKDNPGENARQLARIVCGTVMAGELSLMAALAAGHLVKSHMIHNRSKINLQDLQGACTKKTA
Kind of data set: HMGCoAR activity assay (NADPH oxidation, absorbance 340 nm). It is filed as biochemical. As to conditions: purified catalytic domain of HMGCoAR; H3 10-1000 μM; 37 °C; absorbance 340 nm at 0 and 10 min; three independent experiments in triplicate.

The next data set has as its system Caco-2 cells. As to conditions: differentiated Caco-2; cited from earlier work. The procedure: CVD is a multifactorial pathology in which oxidative and inflammatory status as well as hypercholesterolemia are among the main risk factors. […] To achieve this goal, a deeper study was carried out for characterizing the potential effect of peptide H3 o ...
The subject of a further data set is HepG2 cells. Briefly: MTT assay, HepG2 cell viability. Conditions: 48 h. The class given is cell-based, human. The procedure: A total of 3 × 10^4 HepG2 cells/well were seeded in 96-well plates and treated with peptide H3 (0.00001, 0.0001, 0.001, 0.01, 0.1, and 1.0 mM) or vehicle (H2O) in complete growth media at 37 °C for 48 h under 5% CO2 atmosphere. MTT experiments were performed using the protocol reported in the Supplementary Materials.
HMGCoAR were provided in the HMGCoAR Assay Kit (Sigma Aldrich SRL, Milan, Italy). The experiments were carried out following the manufacturer instructions at 37 °C. […] Subsequently, the samples were mixed and the absorbance at 340 nm read by the microplate reader Synergy H1 […]
vehicle (H2O) in complete growth media for at 37 °C under 5% CO2 atmosphere for 48 h. […] After 5 min of slow shaking, the absorbance at 575 nm was read on the Synergy H1 fluorescence plate reader (Biotek, Bad Friedrichshall, Germany). […]
For the experiments, a total of 3 X 10 4 HepG2 cells/well were seeded in 96-well plates. […] The reaction was stopped with 2 M H2SO4 and then the absorbance at 450 nm was measured using the microplate reader Synergy H1 (Winooski, VT, USA). After the read, cells were stained by adding 1 X Janus Green stain, incubating for 5 min at RT. […]
Afterward 100 µL 0.5 M HCl for well were added and incubated for 10 min. After 10 min shaking, the OD at 595 nm was measured using the microplate reader Synergy H1 (Winooski, VT, USA). […]
On the technique in general: Tetrazolium dyes change colour on reduction, which living cells bring about.

Turning to IGFLIIWV [H3], the IC50 in data set [1] turned out to be 59 µM. For the same sequence, the intestinal trans-epithelial transport result in the data set with Caco-2 cells is recorded as “transported intact by differentiated Caco-2”. Further, the reduced cell viability in the data set on HepG2 cells (1 mM H3, mean ± S.D. of three experiments in triplicate, Figure S1) came to 19.63 ± 0.59%. Moreover, the “effect on HepG2 viability” value in the data set with HepG2 cells (up to 100 µM, versus control cells, three experiments in triplicate) is on record as “no effect on HepG2 viability was observed up to 100 µM”.

Broadly, the IC50 is the concentration at which inhibition is half-maximal. Read a high IC50 as weaker potency in that assay.
